Reference: publication PMC11480411, “Mucosal sugars delineate pyrazine vs pyrazinone autoinducer signaling in Klebsiella oxytoca” (Nature Communications, 2024)

What was measured:
Test in all cases: PRESTO-Tango GPCR screen
Assay type in all cases: cell-based
Details in all cases: 100 µM
CCR7 = target: T1, CCR7 (Homo sapiens, UniProt P32248)
T1 construct: purchased PRESTO-Tango GPCR kit (Roth lab / Addgene)
How it was run: (§1)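 Fold activation = RLU of treated well ÷ RLU of PBS control. Reporter: tTA-luciferase in HTLA (HEK293) cells transfected with GPCR-Tango DNA via PEI; ligand 100 μM final, 20 h stimulation, then Bright-Glo readout.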

HTR2B = target: T2, HTR2B (Homo sapiens, UniProt P41595)
T2 construct: purchased PRESTO-Tango GPCR kit (Roth lab / Addgene)
How it was run: as §1

GPR153 = target: T3, GPR153 (Homo sapiens, UniProt Q6NV75)
T3 construct: purchased PRESTO-Tango GPCR kit (Roth lab / Addgene)
How it was run: as §1

TACR2 = target: T4, TACR2 (Homo sapiens, UniProt P21452)
T4 construct: purchased PRESTO-Tango GPCR kit (Roth lab / Addgene)
How it was run: as §1

GPR77 = target: T5, GPR77 (Homo sapiens, UniProt Q9P296)
T5 construct: purchased PRESTO-Tango GPCR kit (Roth lab / Addgene)
How it was run: as §1

GRM5 = target: T6, GRM5 (Homo sapiens, UniProt P41594)
T6 construct: purchased PRESTO-Tango GPCR kit (Roth lab / Addgene)
How it was run: as §1

GPR84 = target: T7, GPR84 (Homo sapiens, UniProt Q9NQS5)
T7 construct: purchased PRESTO-Tango GPCR kit (Roth lab / Addgene)
How it was run: as §1

CMKLR1 = target: T8, CMKLR1 (Homo sapiens, UniProt Q99788)
T8 construct: purchased PRESTO-Tango GPCR kit (Roth lab / Addgene)
How it was run: as §1

MC5R = target: T9, MC5R (Homo sapiens, UniProt P33032)
T9 construct: purchased PRESTO-Tango GPCR kit (Roth lab / Addgene)
How it was run: as §1

P2RY8 = target: T10, P2RY8 (Homo sapiens, UniProt Q86VZ1)
T10 construct: purchased PRESTO-Tango GPCR kit (Roth lab / Addgene)
How it was run: as §1

VIPR1 = target: T11, VIPR1 (Homo sapiens, UniProt P32241)
T11 construct: purchased PRESTO-Tango GPCR kit (Roth lab / Addgene)
How it was run: as §1

LPAR2 = target: T12, LPAR2 (Homo sapiens, UniProt Q9HBW0)
T12 construct: purchased PRESTO-Tango GPCR kit (Roth lab / Addgene)
How it was run: as §1

HCA3 = target: T13, HCA3 (Homo sapiens, UniProt P49019)
T13 construct: purchased PRESTO-Tango GPCR kit (Roth lab / Addgene)
How it was run: as §1

S1PR1 = target: T14, S1PR1 (Homo sapiens, UniProt P21453)
T14 construct: purchased PRESTO-Tango GPCR kit (Roth lab / Addgene)
How it was run: as §1

S1PR2 = target: T15, S1PR2 (Homo sapiens, UniProt O95136)
T15 construct: purchased PRESTO-Tango GPCR kit (Roth lab / Addgene)
How it was run: as §1

P2RY6 = target: T16, P2RY6 (Homo sapiens, UniProt Q15077)
T16 construct: purchased PRESTO-Tango GPCR kit (Roth lab / Addgene)
How it was run: as §1

GPR171 = target: T17, GPR171 (Homo sapiens, UniProt O14626)
T17 construct: purchased PRESTO-Tango GPCR kit (Roth lab / Addgene)
How it was run: as §1

GPR56 = target: T18, GPR56 (Homo sapiens, UniProt Q9Y653)
T18 construct: purchased PRESTO-Tango GPCR kit (Roth lab / Addgene)
How it was run: as §1

GPR4 = target: T19, GPR4 (Homo sapiens, UniProt P46093)
T19 construct: purchased PRESTO-Tango GPCR kit (Roth lab / Addgene)
How it was run: as §1

HTR1B = target: T20, HTR1B (Homo sapiens, UniProt P28222)
T20 construct: purchased PRESTO-Tango GPCR kit (Roth lab / Addgene)
How it was run: as §1

OPN5 = target: T21, OPN5 (Homo sapiens, UniProt Q6U736)
T21 construct: purchased PRESTO-Tango GPCR kit (Roth lab / Addgene)
How it was run: as §1

CCKAR = target: T22, CCKAR (Homo sapiens, UniProt P32238)
T22 construct: purchased PRESTO-Tango GPCR kit (Roth lab / Addgene)
How it was run: as §1

MLNR = target: T23, MLNR (Homo sapiens, UniProt O43193)
T23 construct: purchased PRESTO-Tango GPCR kit (Roth lab / Addgene)
How it was run: as §1

FFA2 = target: T24, FFA2 (Homo sapiens, UniProt O15552)
T24 construct: purchased PRESTO-Tango GPCR kit (Roth lab / Addgene)
How it was run: as §1

GPR119 = target: T25, GPR119 (Homo sapiens, UniProt Q8TDV5)
T25 construct: purchased PRESTO-Tango GPCR kit (Roth lab / Addgene)
How it was run: as §1

GPR83 = target: T26, GPR83 (Homo sapiens, UniProt Q9NYM4)
T26 construct: purchased PRESTO-Tango GPCR kit (Roth lab / Addgene)
How it was run: as §1

TA1 = target: T27, TA1 (Homo sapiens, UniProt Q96RJ0)
T27 construct: purchased PRESTO-Tango GPCR kit (Roth lab / Addgene)
How it was run: as §1

HCA1 = target: T28, HCA1 (Homo sapiens, UniProt Q9BXC0)
T28 construct: purchased PRESTO-Tango GPCR kit (Roth lab / Addgene)
How it was run: as §1

MRGPRD = target: T29, MRGPRD (Homo sapiens, UniProt Q8TDS7)
T29 construct: purchased PRESTO-Tango GPCR kit (Roth lab / Addgene)
How it was run: as §1

RXFP2 = target: T30, RXFP2 (Homo sapiens, UniProt Q8WXD0)
T30 construct: purchased PRESTO-Tango GPCR kit (Roth lab / Addgene)
How it was run: as §1

PTAFR = target: T31, PTAFR (Homo sapiens, UniProt P25105)
T31 construct: purchased PRESTO-Tango GPCR kit (Roth lab / Addgene)
How it was run: as §1

GPR75 = target: T32, GPR75 (Homo sapiens, UniProt O95800)
T32 construct: purchased PRESTO-Tango GPCR kit (Roth lab / Addgene)
How it was run: as §1

NPY1R = target: T33, NPY1R (Homo sapiens, UniProt P25929)
T33 construct: purchased PRESTO-Tango GPCR kit (Roth lab / Addgene)
How it was run: as §1

FFA3 = target: T34, FFA3 (Homo sapiens, UniProt O14843)
T34 construct: purchased PRESTO-Tango GPCR kit (Roth lab / Addgene)
How it was run: as §1

OPN3 = target: T35, OPN3 (Homo sapiens, UniProt Q9H1Y3)
T35 construct: purchased PRESTO-Tango GPCR kit (Roth lab / Addgene)
How it was run: as §1

GPRC5B = target: T36, GPRC5B (Homo sapiens, UniProt Q9NZH0)
T36 construct: purchased PRESTO-Tango GPCR kit (Roth lab / Addgene)
How it was run: as §1

T21 sequence (Q6U736 whole entry): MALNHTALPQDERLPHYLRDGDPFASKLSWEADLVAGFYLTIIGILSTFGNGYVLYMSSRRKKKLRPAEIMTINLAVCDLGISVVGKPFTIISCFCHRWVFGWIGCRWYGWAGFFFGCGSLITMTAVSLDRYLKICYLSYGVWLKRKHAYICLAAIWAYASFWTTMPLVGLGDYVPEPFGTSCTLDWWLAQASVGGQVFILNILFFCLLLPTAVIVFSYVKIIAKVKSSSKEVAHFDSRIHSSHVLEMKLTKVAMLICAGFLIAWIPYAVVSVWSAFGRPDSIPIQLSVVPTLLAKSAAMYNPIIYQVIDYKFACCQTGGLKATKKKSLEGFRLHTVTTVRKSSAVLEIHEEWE
T10 sequence (Q86VZ1 whole entry): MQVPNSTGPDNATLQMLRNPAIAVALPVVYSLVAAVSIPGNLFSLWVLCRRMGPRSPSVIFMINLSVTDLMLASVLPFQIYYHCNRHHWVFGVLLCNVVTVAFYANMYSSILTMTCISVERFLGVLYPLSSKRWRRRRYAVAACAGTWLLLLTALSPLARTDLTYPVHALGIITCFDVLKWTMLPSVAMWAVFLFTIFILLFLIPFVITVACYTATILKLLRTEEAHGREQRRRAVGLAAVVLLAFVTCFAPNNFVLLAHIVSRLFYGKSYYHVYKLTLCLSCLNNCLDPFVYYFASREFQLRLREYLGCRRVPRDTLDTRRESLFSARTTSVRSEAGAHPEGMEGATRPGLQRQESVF
T12 sequence (Q9HBW0 whole entry): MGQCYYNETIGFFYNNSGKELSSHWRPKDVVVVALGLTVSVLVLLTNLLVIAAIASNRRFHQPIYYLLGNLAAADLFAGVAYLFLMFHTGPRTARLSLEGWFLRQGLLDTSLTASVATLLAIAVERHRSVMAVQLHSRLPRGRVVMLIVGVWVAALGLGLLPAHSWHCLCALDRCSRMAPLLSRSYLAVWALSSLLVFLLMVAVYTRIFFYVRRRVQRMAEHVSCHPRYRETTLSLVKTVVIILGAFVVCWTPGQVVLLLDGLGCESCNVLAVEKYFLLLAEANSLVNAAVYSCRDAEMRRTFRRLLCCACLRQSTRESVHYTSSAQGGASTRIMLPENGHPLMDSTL
T18 sequence (Q9Y653 26-693): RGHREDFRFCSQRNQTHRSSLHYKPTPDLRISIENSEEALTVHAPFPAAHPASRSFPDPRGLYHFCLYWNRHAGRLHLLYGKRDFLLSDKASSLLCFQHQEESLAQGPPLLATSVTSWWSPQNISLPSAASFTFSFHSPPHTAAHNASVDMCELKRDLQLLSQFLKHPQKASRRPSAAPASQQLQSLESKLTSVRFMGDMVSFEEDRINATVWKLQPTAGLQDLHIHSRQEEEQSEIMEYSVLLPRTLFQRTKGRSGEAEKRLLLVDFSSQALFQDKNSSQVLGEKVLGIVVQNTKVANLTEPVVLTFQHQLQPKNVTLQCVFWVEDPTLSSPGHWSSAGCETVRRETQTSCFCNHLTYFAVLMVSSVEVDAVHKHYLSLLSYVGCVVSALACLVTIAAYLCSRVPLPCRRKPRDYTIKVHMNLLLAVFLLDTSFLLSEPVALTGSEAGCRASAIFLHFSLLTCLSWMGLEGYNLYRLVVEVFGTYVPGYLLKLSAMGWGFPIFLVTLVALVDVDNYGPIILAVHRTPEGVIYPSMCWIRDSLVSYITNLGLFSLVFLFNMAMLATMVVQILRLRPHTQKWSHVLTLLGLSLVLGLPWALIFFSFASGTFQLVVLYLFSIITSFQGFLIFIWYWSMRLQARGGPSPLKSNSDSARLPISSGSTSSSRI
T24 sequence (O15552 whole entry): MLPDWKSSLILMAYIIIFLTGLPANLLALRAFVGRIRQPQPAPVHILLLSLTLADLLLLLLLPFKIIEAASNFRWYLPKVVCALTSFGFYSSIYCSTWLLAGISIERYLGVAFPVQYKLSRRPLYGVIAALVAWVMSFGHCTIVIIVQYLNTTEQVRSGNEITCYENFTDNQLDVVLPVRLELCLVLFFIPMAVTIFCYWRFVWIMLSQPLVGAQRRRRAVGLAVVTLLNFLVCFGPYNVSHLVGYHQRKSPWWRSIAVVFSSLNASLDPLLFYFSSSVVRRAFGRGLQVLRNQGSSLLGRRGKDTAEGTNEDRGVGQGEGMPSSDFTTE
T3 sequence (Q6NV75 whole entry): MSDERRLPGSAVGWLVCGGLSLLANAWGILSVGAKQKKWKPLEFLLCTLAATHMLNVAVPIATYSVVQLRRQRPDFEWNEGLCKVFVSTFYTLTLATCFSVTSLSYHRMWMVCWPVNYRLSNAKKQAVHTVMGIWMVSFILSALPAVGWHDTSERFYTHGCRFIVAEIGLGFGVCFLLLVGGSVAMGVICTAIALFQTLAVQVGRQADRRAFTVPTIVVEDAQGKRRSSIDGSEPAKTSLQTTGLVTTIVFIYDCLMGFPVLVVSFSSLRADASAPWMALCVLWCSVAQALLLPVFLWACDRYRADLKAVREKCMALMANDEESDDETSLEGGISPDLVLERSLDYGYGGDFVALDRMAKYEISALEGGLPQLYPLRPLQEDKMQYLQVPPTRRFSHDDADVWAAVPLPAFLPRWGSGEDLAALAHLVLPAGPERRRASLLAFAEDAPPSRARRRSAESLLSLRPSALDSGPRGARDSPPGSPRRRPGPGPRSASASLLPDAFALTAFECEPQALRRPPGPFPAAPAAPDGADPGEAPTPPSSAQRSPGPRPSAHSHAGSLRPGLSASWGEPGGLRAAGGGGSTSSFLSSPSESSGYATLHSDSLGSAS
T7 sequence (Q9NQS5 whole entry): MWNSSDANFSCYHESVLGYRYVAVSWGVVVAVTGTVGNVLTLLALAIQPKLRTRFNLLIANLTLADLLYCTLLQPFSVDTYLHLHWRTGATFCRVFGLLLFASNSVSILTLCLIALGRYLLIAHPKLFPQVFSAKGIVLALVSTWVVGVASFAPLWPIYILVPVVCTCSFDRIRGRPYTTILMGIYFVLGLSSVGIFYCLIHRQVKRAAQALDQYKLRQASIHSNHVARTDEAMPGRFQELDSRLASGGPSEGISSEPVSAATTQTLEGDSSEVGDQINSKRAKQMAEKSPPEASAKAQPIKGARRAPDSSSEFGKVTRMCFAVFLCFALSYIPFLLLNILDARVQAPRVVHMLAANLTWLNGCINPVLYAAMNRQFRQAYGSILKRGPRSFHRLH
T29 sequence (Q8TDS7 whole entry): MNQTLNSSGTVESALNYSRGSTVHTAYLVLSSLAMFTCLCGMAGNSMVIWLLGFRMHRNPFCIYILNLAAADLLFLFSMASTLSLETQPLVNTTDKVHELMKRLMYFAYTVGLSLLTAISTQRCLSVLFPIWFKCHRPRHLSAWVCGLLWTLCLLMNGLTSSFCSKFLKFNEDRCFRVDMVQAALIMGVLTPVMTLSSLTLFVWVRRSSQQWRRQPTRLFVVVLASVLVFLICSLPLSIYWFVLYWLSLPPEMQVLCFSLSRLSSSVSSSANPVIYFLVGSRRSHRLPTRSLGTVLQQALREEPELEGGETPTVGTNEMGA
T8 sequence (Q99788 whole entry): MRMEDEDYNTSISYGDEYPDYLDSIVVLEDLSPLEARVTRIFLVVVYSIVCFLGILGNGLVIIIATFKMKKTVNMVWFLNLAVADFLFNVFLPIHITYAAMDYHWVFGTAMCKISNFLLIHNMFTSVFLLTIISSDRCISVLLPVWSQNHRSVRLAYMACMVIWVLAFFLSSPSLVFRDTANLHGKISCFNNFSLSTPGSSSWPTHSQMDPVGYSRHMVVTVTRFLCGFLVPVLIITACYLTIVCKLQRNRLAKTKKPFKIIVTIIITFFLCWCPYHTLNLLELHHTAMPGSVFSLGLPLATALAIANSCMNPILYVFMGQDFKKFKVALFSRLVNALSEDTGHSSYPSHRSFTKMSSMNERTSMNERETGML
T28 sequence (Q9BXC0 whole entry): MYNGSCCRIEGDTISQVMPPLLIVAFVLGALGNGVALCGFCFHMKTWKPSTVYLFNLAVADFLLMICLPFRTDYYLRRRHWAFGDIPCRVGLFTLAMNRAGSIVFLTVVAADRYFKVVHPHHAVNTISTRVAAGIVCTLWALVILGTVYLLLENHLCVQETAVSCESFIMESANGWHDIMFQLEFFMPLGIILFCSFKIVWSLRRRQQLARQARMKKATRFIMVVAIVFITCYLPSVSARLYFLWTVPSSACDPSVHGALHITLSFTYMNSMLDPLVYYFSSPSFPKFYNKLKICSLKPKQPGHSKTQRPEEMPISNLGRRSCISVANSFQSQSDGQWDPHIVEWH
T20 sequence (P28222 whole entry): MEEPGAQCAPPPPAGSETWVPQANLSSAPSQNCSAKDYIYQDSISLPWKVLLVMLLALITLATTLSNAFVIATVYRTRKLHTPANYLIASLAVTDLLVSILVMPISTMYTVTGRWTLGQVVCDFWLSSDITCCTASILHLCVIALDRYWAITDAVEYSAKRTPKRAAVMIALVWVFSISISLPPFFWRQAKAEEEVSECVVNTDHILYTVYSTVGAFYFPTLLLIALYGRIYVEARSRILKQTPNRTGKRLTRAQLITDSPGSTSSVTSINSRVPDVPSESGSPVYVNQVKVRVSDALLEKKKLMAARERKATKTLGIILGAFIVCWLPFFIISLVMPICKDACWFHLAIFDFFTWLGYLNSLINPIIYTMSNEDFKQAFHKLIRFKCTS
T22 sequence (P32238 whole entry): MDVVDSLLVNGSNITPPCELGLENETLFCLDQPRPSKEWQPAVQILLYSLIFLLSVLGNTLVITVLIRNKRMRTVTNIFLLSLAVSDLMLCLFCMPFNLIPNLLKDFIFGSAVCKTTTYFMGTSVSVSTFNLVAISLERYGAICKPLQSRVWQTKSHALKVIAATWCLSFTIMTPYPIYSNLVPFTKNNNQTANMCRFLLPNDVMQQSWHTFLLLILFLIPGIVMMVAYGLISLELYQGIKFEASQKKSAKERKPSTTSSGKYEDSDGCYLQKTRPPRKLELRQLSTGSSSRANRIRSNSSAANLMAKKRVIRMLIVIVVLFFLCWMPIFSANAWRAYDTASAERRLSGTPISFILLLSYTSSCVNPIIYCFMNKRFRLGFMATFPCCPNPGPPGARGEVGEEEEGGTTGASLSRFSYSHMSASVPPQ

SMILES	GPCR activation (heatmap value) (CCR7)	GPCR activation (heatmap value) (HTR2B)	GPCR activation (heatmap value) (GPR153)	GPCR activation (heatmap value) (TACR2)	GPCR activation (heatmap value) (GPR77)	GPCR activation (heatmap value) (GRM5)	GPCR activation (heatmap value) (GPR84)	GPCR activation (heatmap value) (CMKLR1)	GPCR activation (heatmap value) (MC5R)	GPCR activation (heatmap value) (P2RY8)	GPCR activation (heatmap value) (VIPR1)	GPCR activation (heatmap value) (LPAR2)	GPCR activation (heatmap value) (HCA3)	GPCR activation (heatmap value) (S1PR1)	GPCR activation (heatmap value) (S1PR2)	GPCR activation (heatmap value) (P2RY6)	GPCR activation (heatmap value) (GPR171)	GPCR activation (heatmap value) (GPR56)	GPCR activation (heatmap value) (GPR4)	GPCR activation (heatmap value) (HTR1B)	further results
CC(C)Cc1ncc(CCCCNC(=N)N)[nH]c1=O [3-Homo]	-1.001	-0.5052	-0.4672	0.6939	0.08307	-0.9141	0.1656	-1.034	0.4155	0.2867	-0.06399	0.05246	-0.8056	-0.03733	-0.09813	-0.2248	-0.9424	-0.2489	0.3486	-0.02426	GPCR activation (heatmap value) (OPN5): -0.4496; GPCR activation (heatmap value) (CCKAR): 0.3945; GPCR activation (heatmap value) (MLNR): -0.3794; GPCR activation (heatmap value) (FFA2): -0.3322; GPCR activation (heatmap value) (GPR119): -1.3809; GPCR activation (heatmap value) (GPR83): 0.2309; GPCR activation (heatmap value) (TA1): 0.4199; GPCR activation (heatmap value) (HCA1): -0.6134; GPCR activation (heatmap value) (MRGPRD): 0.2698; GPCR activation (heatmap value) (RXFP2): 0.2908; GPCR activation (heatmap value) (PTAFR): -0.1375; GPCR activation (heatmap value) (GPR75): 0.5978; GPCR activation (heatmap value) (NPY1R): -1.44; GPCR activation (heatmap value) (FFA3): -0.4191; GPCR activation (heatmap value) (OPN3): 0.7317; GPCR activation (heatmap value) (GPRC5B): 0.238
CC(C)Cc1ncc(CCCNC(=N)N)[nH]c1=O [compound 3]	-2.336	-0.6262	0.1913	0.2945	0.5685	0.02679	-0.1947	0.8088	-0.2243	0.4444	0.4975	-0.4851	-0.032	-0.122	0.5246	0.4506	0.9197	-0.03075	0.5113	0.5899	GPCR activation (heatmap value) (OPN5): -1.123; GPCR activation (heatmap value) (CCKAR): 0.06622; GPCR activation (heatmap value) (MLNR): -1.345; GPCR activation (heatmap value) (FFA2): -0.009625; GPCR activation (heatmap value) (GPR119): 0.03995; GPCR activation (heatmap value) (GPR83): -0.04196; GPCR activation (heatmap value) (TA1): -0.5267; GPCR activation (heatmap value) (HCA1): 0.05882; GPCR activation (heatmap value) (MRGPRD): -0.4298; GPCR activation (heatmap value) (RXFP2): -0.001018; GPCR activation (heatmap value) (PTAFR): -0.05027; GPCR activation (heatmap value) (GPR75): -1.251; GPCR activation (heatmap value) (NPY1R): -0.2056; GPCR activation (heatmap value) (FFA3): -0.2613; GPCR activation (heatmap value) (OPN3): 0.9288; GPCR activation (heatmap value) (GPRC5B): 0.6932
